Measurements from paper PMC12669040, “Tumour-specific STING agonist synthesis via a two-component prodrug system” (Nature Chemistry, 2025).
Several values for one entry are separate records, joined by “and”; a condition that tells them apart may be missing. Identical values can stand only once.

Tests used:
[1] = Colorimetric alkylation rate constant assay with TNB^2− as non-specific thiol; type: physicochemical; design: second-order: unit not given here; conditions: [B]0 = 250, Replicates 1-3
[2] = Colorimetric alkylation rate constant assay with thiol N1; type: physicochemical; conditions: for remaining [A]: N1 from calibration curve (N1 in uM); for remaining [A] / remaining [B]: in µM

## O=C(CCl)Nc1ccccc1C(=O)O [Compound C5]
[1]; Time 5781 sec
  second-order: 0.0002878 and 0.0002803 and 0.0002499
[1]; Time 5961 sec
  second-order: 0.0002906 and 0.000283 and 0.0002554
[2]; Replicate 1, time 576 sec
  remaining [A]: 85.1676
[2]; Replicate 1, time 576 sec, [B]0 = 250
  remaining [B]: 231.048
[2]; Replicate 1, time 576 sec, second-order plot value
  second-order: 0.0008369
[2]; Replicate 1, time 606 sec
  remaining [A]: 84.6546
[2]; Replicate 1, time 606 sec, [B]0 = 250
  remaining [B]: 230.535
[2]; Replicate 1, time 606 sec, second-order plot value
  second-order: 0.0008631
[2]; Replicate 2, time 576 sec
  remaining [A]: 85.8231
[2]; Replicate 2, time 576 sec, [B]0=250
  remaining [B]: 232.681
[2]; Replicate 2, time 576 sec, second-order plot value
  second-order: 0.0007628
[2]; Replicate 2, time 606 sec
  remaining [A]: 85.3129
[2]; Replicate 2, time 606 sec, [B]0=250
  remaining [B]: 232.171
[2]; Replicate 2, time 606 sec, second-order plot value
  second-order: 0.0007885
[2]; Replicate 3, time 576 sec
  remaining [A]: 89.9918
[2]; Replicate 3, time 576 sec, [B]0=250
  remaining [B]: 235.444
[2]; Replicate 3, time 576 sec, second-order plot value
  second-order: 0.0006183
[2]; Replicate 3, time 606 sec
  remaining [A]: 89.4236
[2]; Replicate 3, time 606 sec, [B]0=250
  remaining [B]: 234.876
[2]; Replicate 3, time 606 sec, second-order plot value
  second-order: 0.0006452
[2]; time 0 sec, [B]0 = 250, replicates 1-3
  remaining [B]: 249.513 and 244.642 and 245.947
[2]; time 0 sec, replicates 1-3
  second-order: 0.0001617 and 1.87e-5 and 0.0002136
[2]; time 30 sec, [B]0 = 250, replicates 1-3
  remaining [B]: 248.485 and 243.217 and 245.21
[2]; time 30 sec, replicates 1-3
  second-order: 0.0001921 and 5.857e-5 and 0.0002732
[2]; time 60 sec, [B]0 = 250, replicates 1-3
  remaining [B]: 247.619 and 242.647 and 243.934
[2]; time 60 sec, replicates 1-3
  second-order: 0.0002455 and 9.259e-5 and 0.0002974
[2]; time 91 sec, [B]0 = 250, replicates 1-3
  remaining [B]: 246.645 and 241.963 and 243.197
[2]; time 91 sec, replicates 1-3
  second-order: 0.0002767 and 0.0001313 and 0.0003267
[2]; time 121 sec, [B]0 = 250, replicates 1-3
  remaining [B]: 245.942 and 241.222 and 242.404
[2]; time 121 sec, replicates 1-3
  second-order: 0.0003108 and 0.0001597 and 0.0003587
[2]; time 151 sec, [B]0 = 250, replicates 1-3
  remaining [B]: 245.265 and 240.31 and 241.667
[2]; time 151 sec, replicates 1-3
  second-order: 0.0003428 and 0.0001872 and 0.0003986
[2]; time 182 sec, [B]0 = 250, replicates 1-3
  remaining [B]: 244.291 and 239.712 and 241.043
[2]; time 182 sec, replicates 1-3
  second-order: 0.0003702 and 0.0002272 and 0.0004251
[2]; time 212 sec, [B]0 = 250, replicates 1-3
  remaining [B]: 243.723 and 239.142 and 240.505
[2]; time 212 sec, replicates 1-3
  second-order: 0.000394 and 0.0002509 and 0.0004506
[2]; time 242 sec, [B]0 = 250, replicates 1-3
  remaining [B]: 242.993 and 238.344 and 239.824
[2]; time 242 sec, replicates 1-3
  second-order: 0.0004243 and 0.0002815 and 0.0004866
[2]; time 273 sec, [B]0 = 250, replicates 1-3
  remaining [B]: 242.1 and 237.717 and 239.002
[2]; time 273 sec, replicates 1-3
  second-order: 0.0004614 and 0.0003194 and 0.0005152
[2]; time 303 sec, [B]0 = 250, replicates 1-3
  remaining [B]: 241.397 and 237.004 and 238.492
[2]; time 303 sec, replicates 1-3
  second-order: 0.0004847 and 0.0003496 and 0.000548
[2]; time 333 sec, [B]0 = 250, replicates 1-3
  remaining [B]: 240.774 and 236.377 and 237.897
[2]; time 333 sec, replicates 1-3
  second-order: 0.000512 and 0.0003766 and 0.0005771
[2]; time 364 sec, [B]0 = 250, replicates 1-3
  remaining [B]: 239.963 and 235.665 and 237.16
[2]; time 364 sec, replicates 1-3
  second-order: 0.0005463 and 0.0004122 and 0.0006106
[2]; time 394 sec, [B]0 = 250, replicates 1-3
  remaining [B]: 239.367 and 234.981 and 236.423
[2]; time 394 sec, replicates 1-3
  second-order: 0.0005809 and 0.0004386 and 0.0006431
[2]; time 424 sec, [B]0 = 250, replicates 1-3
  remaining [B]: 238.745 and 234.154 and 235.799
[2]; time 424 sec, replicates 1-3
  second-order: 0.0006105 and 0.0004664 and 0.0006829
[2]; time 454 sec, [B]0 = 250, replicates 1-3
  remaining [B]: 238.204 and 233.641 and 235.374
[2]; time 454 sec, replicates 1-3
  second-order: 0.0006308 and 0.0004908 and 0.0007078
[2]; time 485 sec, [B]0 = 250, replicates 1-3
  remaining [B]: 237.419 and 232.929 and 234.552
[2]; time 485 sec, replicates 1-3
  second-order: 0.0006705 and 0.0005265 and 0.0007427
[2]; time 515 sec, [B]0 = 250, replicates 1-3
  remaining [B]: 236.662 and 232.416 and 234.155
[2]; time 515 sec, replicates 1-3
  second-order: 0.0006899 and 0.0005614 and 0.0007681
[2]; time 545 sec, [B]0 = 250, replicates 1-3
  remaining [B]: 236.148 and 231.703 and 233.702
[2]; time 545 sec, replicates 1-3
  second-order: 0.0007121 and 0.0005853 and 0.0008038
